Results: patent US20150174283A1, “Smart, Self-Decontaminating Polymer and Method for Inhibiting The Growth Of A Bacteria and Fungus” (priority 2012, published 2015)

Columns and labels:
[1] = chlorination of thionin by enzymes in solution (bleaching followed at 598 nm); format: biochemical; conditions: substrate glucose
Method: The chlorinating activity of composite polymers was measured by following the chlorination of a colored substrate (thionin). The thionin is a blue-violet dye that absorbs at 598 nm and undergoes bleaching (to colorless) upon chlorination. A battery of tests were carried out in 100 mM phosphate citrate buffer at pH 4.0. […] The reaction mixture comprised 1.45 mL of the thionin/NaCl solution, 30 μL of the substrate solution (glucose or peroxide), and 25 μL of the enzyme solution (total). Buffer was used to replace the enzyme or substrate in control reactions.

[2] = test system: Staphylococcus aureus; assay: S. aureus growth on TSA plates with or without hydroxylamine and polymer foams; format: cell-based; conditions: TSA plates containing 500 uM HA, no polymer, 18 hours, 37 C
Text: The microorganism, Staphylococcus aureus (S. aureus/Staph), was utilized. Staphylococcus aureus is an important bacterium to study and ultimately have the ability to inhibit, as Staphlococcus can cause a number of diseases as a result of infection. The strain Methicillin-resistant Staphylococcus aureus or MRSA is a multi-drug resistant bacterium, making any MRSA infection difficult to treat with standard antibiotics and is thus a more dangerous infection; the number of drug-resistant MRSA cases has increase by 90% over the past decade. MRSA is the most significant infection encountered in hospital settings, costing US hospitals $3.2 to 4.2 billion annually to treat infected patients. Patients with MRSA infections often require longer hospital stays and more time spent in intensive care units. […]

[3] = test system: host cells; conditions: cited from earlier work

glucose oxidase
absorbance of thionin at 598 nm, after two minutes ([1]; 20 mM NaCl, pH 4.0): 0.670 | color change of thionin ([1]; thionin/NaCl solution, two minutes): no color change was observed

NO [HA, hydroxylamine]
S. aureus growth [2]: does not inhibit the growth | S. aureus growth ([2]; listed as Hydroxylamine): not effected

OO [hydrogen peroxide, Hydrogen peroxide]
concentration toxic to the host cells [3]: > 3%
